{"source": "patent US11596611B2", "about": "“Hepatitis B antiviral agents” (ENANTA PHARMACEUTICALS, INC., priority 2017, dated 2023)", "key": {"HBV": {"system": "HBV", "test": "HepAD38 antiviral assay: reduction of viral product accumulation (virion DNA by qPCR, HBsAg or HBeAg by ELISA)", "assay_type": "cell-based, hepatitis B virus", "settings": "Hepatitis B virus, 120 h; HepAD38 cells, five days after compound addition; 50% reduction of viral product vs no drug controls; read-out: HepAD38 EC50", "how_it_was_run": "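Tetracycline-free HepAD38 cells exposed to compound (DMSO stock diluted 1:200) for 5 days, or 8 days with media and compound refreshed on d2 and d5. Virion DNA quantified by qPCR after lysis; HBsAg or HBeAg measured by ELISA on diluted samples.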"}, "[1]": {"test": "Compound toxicity by ATPLite (total ATP levels)", "assay_type": "cell-based", "settings": "human, three days after compound addition, 50% reduction of total ATP", "description": "Methods: HepAD38 cells are maintained as previously reported (Ladner et al, Antimicrob. Agents Chemother. 1997, […], 1715). Briefly, cells are passaged upon attaining confluency in DMEM/F12 media in the presence of 10% FBS, Penn/Strep, 250 μg/mL G418, and 1 ug/ml tetracycline. Novel compounds are screened by first washing cells three times with PBS to remove tetracycline, and plating in 96 well plates at 35,000 cells/well. Compounds dissolved in DMSO are then diluted 1:200 into wells containing cells. Five days after compound addition, material is harvested for analysis. For an extended 8 days analysis, cells are plated and treated as described above, but media and compound are refreshed on d2 and d5 post initial treatment.\nCompound toxicity is evaluated by seeding cells at 15,000 cells/well and treating with compound as described above."}}}
{"smiles": "COCC1(NC(=O)C[C@]2(O)C3CCC2C[C@@H](S(=O)(=O)c2cc(C(=O)Nc4cc(F)c(F)c(F)c4)ccc2Cl)C3)CC1", "note": "[Example 116]", "values": [{"measurement": "EC50", "setting": "HBV", "value": "< 104", "unit": "nM"}, {"measurement": "CC50 at 3 days", "setting": "[1]; numeric bounds", "value": "> 3000", "unit": "nM"}]}
{"smiles": "O=C(Nc1ccc(F)c(F)c1)c1ccc(Cl)c(S(=O)(=O)[C@H]2CC3CCC(C2)[C@]3(O)C(O)c2ccc(F)cn2)c1", "note": "(some centres unmarked) [Example 291]", "values": [{"measurement": "EC50", "setting": "HBV", "value": "< 104", "unit": "nM"}, {"measurement": "CC50 at 3 days", "setting": "[1]; class symbols", "value": "> 25000", "unit": "nM"}]}
{"smiles": "O=C(Nc1cc(F)c(F)c(F)c1)c1ccc(Cl)c(S(=O)(=O)[C@H]2CC3CCC(C2)[C@]3(O)CNC(=O)C2CCOCC2)c1", "note": "[Example 89]", "values": [{"measurement": "EC50", "setting": "HBV", "value": "< 104", "unit": "nM"}, {"measurement": "CC50 at 3 days", "setting": "[1]; numeric bounds", "value": "> 6250", "unit": "nM"}]}
{"smiles": "O=C(Nc1ccc(F)c(F)c1)c1ccc(Cl)c(S(=O)(=O)[C@H]2CC3CCC(C2)[C@]3(O)C2CO2)c1", "note": "(some centres unmarked) [Example 308]", "values": [{"measurement": "EC50", "setting": "HBV", "value": "< 104", "unit": "nM"}, {"measurement": "CC50 at 3 days", "setting": "[1]; class symbols", "value": "> 25000", "unit": "nM"}]}
{"smiles": "CC(O)C[C@@]1(O)C2CC[C@H]1C[C@H](S(=O)(=O)c1cc(C(=O)Nc3ccc(F)c(F)c3)ccc1Cl)C2", "note": "(some centres unmarked) [Example 218]", "values": [{"measurement": "EC50", "setting": "HBV", "value": "< 104", "unit": "nM"}, {"measurement": "CC50 at 3 days", "setting": "[1]; class symbols", "value": "10000 to 25000", "unit": "nM"}]}
{"smiles": "O=C(Nc1ccc(F)c(F)c1)c1ccc(F)c(S(=O)(=O)[C@@H]2CC3CC[C@@H](C2)[C@@]3(O)CO)c1", "note": "[Example 325]", "values": [{"measurement": "EC50", "setting": "HBV", "value": "< 104", "unit": "nM"}, {"measurement": "CC50 at 3 days", "setting": "[1]; class symbols", "value": "> 25000", "unit": "nM"}]}
{"smiles": "C=CCS(=O)(=O)NC[C@]1(O)C2CCC1C[C@@H](S(=O)(=O)c1cc(C(=O)Nc3cc(F)c(F)c(F)c3)ccc1Cl)C2", "note": "[Example 39]", "values": [{"measurement": "EC50", "setting": "HBV", "value": "< 104", "unit": "nM"}, {"measurement": "CC50 at 3 days", "setting": "[1]; numeric bounds", "value": "> 6250", "unit": "nM"}]}
{"smiles": "CC(C)OC(=O)N[C@@H](C)C(=O)NC[C@]1(O)C2CCC1C[C@@H](S(=O)(=O)c1cc(C(=O)Nc3cc(F)c(F)c(F)c3)ccc1Cl)C2", "note": "[Example 70]", "values": [{"measurement": "EC50", "setting": "HBV", "value": "< 104", "unit": "nM"}, {"measurement": "CC50 at 3 days", "setting": "[1]; class symbols", "value": "> 25000", "unit": "nM"}]}
{"smiles": "C[C@@H](O)CNC(=O)C[C@]1(O)C2CCC1C[C@@H](S(=O)(=O)c1cc(C(=O)Nc3cc(F)c(F)c(F)c3)ccc1Cl)C2", "note": "[Example 113]", "values": [{"measurement": "EC50", "setting": "HBV", "value": "< 104", "unit": "nM"}, {"measurement": "CC50 at 3 days", "setting": "[1]; numeric bounds", "value": "> 6250", "unit": "nM"}]}
{"smiles": "C[C@@H](O)[C@H](O)COC[C@]1(O)C2CCC1C[C@@H](S(=O)(=O)c1cc(C(=O)Nc3cc(F)c(F)c(F)c3)ccc1Cl)C2", "note": "[Example 36]", "values": [{"measurement": "EC50", "setting": "HBV", "value": "< 104", "unit": "nM"}, {"measurement": "CC50 at 3 days", "setting": "[1]; class symbols", "value": "> 25000", "unit": "nM"}]}
{"smiles": "C[C@H](O)[C@@H](O)COC[C@]1(O)C2CCC1C[C@@H](S(=O)(=O)c1cc(C(=O)Nc3ccc(F)c(F)c3)ccc1Cl)C2", "note": "[Example 179]", "values": [{"measurement": "EC50", "setting": "HBV", "value": "< 104", "unit": "nM"}, {"measurement": "CC50 at 3 days", "setting": "[1]; class symbols", "value": "> 25000", "unit": "nM"}]}
{"smiles": "COCCNC(=O)C[C@]1(O)C2CCC1C[C@@H](S(=O)(=O)c1cc(C(=O)Nc3cc(F)c(F)c(F)c3)ccc1Cl)C2", "note": "[Example 114]", "values": [{"measurement": "EC50", "setting": "HBV", "value": "< 104", "unit": "nM"}, {"measurement": "CC50 at 3 days", "setting": "[1]; numeric bounds", "value": "> 6250", "unit": "nM"}]}
{"smiles": "C[C@H](O)[C@@H](O)[C@@]1(O)C2CC[C@H]1C[C@H](S(=O)(=O)c1cc(C(=O)Nc3cc(F)c(F)c(F)c3)ccc1Cl)C2", "note": "(single isomer, unassigned) [Example 137]", "values": [{"measurement": "EC50", "setting": "HBV", "value": "< 104", "unit": "nM"}, {"measurement": "CC50 at 3 days", "setting": "[1]; numeric bounds", "value": "> 6250", "unit": "nM"}]}
{"smiles": "C[C@H](O)COC[C@]1(O)C2CCC1C[C@@H](S(=O)(=O)c1cc(C(=O)Nc3ccc(F)c(F)c3)ccc1Cl)C2", "note": "[Example 176]", "values": [{"measurement": "EC50", "setting": "HBV", "value": "< 104", "unit": "nM"}, {"measurement": "CC50 at 3 days", "setting": "[1]; numeric bounds", "value": "> 6250", "unit": "nM"}]}
{"smiles": "C[C@H](O)[C@@H](O)[C@]1(O)C2CCC1C[C@@H](S(=O)(=O)c1cc(C(=O)Nc3ccc(F)c(F)c3)ccc1Cl)C2", "note": "(single isomer, unassigned) [Example 182]", "values": [{"measurement": "EC50", "setting": "HBV", "value": "< 104", "unit": "nM"}, {"measurement": "CC50 at 3 days", "setting": "[1]; class symbols", "value": "> 25000", "unit": "nM"}]}
{"smiles": "O=C(Nc1cc(F)c(F)c(F)c1)c1ccc(Cl)c(S(=O)(=O)[C@H]2C3CC[C@H]2C[C@](O)(CCCO)C3)c1", "note": "[Example 9]", "values": [{"measurement": "EC50", "setting": "HBV", "value": "< 104", "unit": "nM"}, {"measurement": "CC50 at 3 days", "setting": "[1]; numeric bounds", "value": "> 6250", "unit": "nM"}]}
{"smiles": "C[C@H](O)C(=O)NC[C@]1(O)C2CCC1C[C@@H](S(=O)(=O)c1cc(C(=O)Nc3cc(F)c(F)c(F)c3)ccc1Cl)C2", "note": "[Example 13]", "values": [{"measurement": "EC50", "setting": "HBV", "value": "< 104", "unit": "nM"}, {"measurement": "CC50 at 3 days", "setting": "[1]; numeric bounds", "value": "> 6250", "unit": "nM"}]}
{"smiles": "O=C(Nc1cc(F)c(F)c(F)c1)c1ccc(Cl)c(S(=O)(=O)[C@H]2CC3CCC(C2)[C@]3(O)CNC(=O)C2CCCOC2)c1", "note": "(some centres unmarked) [Example 90]", "values": [{"measurement": "EC50", "setting": "HBV", "value": "< 104", "unit": "nM"}, {"measurement": "CC50 at 3 days", "setting": "[1]; numeric bounds", "value": "> 6250", "unit": "nM"}]}
{"smiles": "CC(C)(C)OC(=O)N[C@@H](Cc1ccccc1)C(=O)N1C2CCC1CC(S(=O)(=O)c1cc(C(=O)Nc3cc(F)c(F)c(F)c3)ccc1Cl)C2", "note": "(some centres unmarked) [Example 152]", "values": [{"measurement": "EC50", "setting": "HBV", "value": "> 200", "unit": "nM"}, {"measurement": "CC50 at 3 days", "setting": "[1]; class symbols", "value": "> 25000", "unit": "nM"}]}
{"smiles": "CC(C)(O)C1CN(C(=O)C[C@]2(O)C3CCC2C[C@@H](S(=O)(=O)c2cc(C(=O)Nc4cc(F)c(F)c(F)c4)ccc2Cl)C3)C1", "note": "[Example 93]", "values": [{"measurement": "EC50", "setting": "HBV", "value": "< 104", "unit": "nM"}, {"measurement": "CC50 at 3 days", "setting": "[1]; numeric bounds", "value": "> 6250", "unit": "nM"}]}
{"smiles": "O=C(Nc1ccc(F)c(F)c1)c1ccc(Cl)c(S(=O)(=O)[C@H]2CC3CCC(C2)[C@]3(O)C(O)Cc2ccccn2)c1", "note": "(some centres unmarked) [Example 319]", "values": [{"measurement": "EC50", "setting": "HBV", "value": "< 104", "unit": "nM"}, {"measurement": "CC50 at 3 days", "setting": "[1]; class symbols", "value": "> 25000", "unit": "nM"}]}
{"smiles": "COC[C@@H](O)COC[C@]1(O)C2CCC1C[C@@H](S(=O)(=O)c1cc(C(=O)Nc3cc(F)c(F)c(F)c3)ccc1Cl)C2", "note": "[Example 122]", "values": [{"measurement": "EC50", "setting": "HBV", "value": "< 104", "unit": "nM"}, {"measurement": "CC50 at 3 days", "setting": "[1]; class symbols", "value": "> 25000", "unit": "nM"}]}
